In one assay the target is Mu-type opioid receptor (Rattus norvegicus, UniProt P33535). Description: Receptor Binding Assay. The method, then: (§1) Competitive binding displacement analysis was performed with membranes prepared from CHO-K1 cells stably expressing receptors. After incubation, samples were collected on GF/B glass-fiber, washed, and counted for radioactivity. IC50 values were obtained by fitting the competition binding curves according to a 4-parameter logistic model. Inhibition constants Ki were derived from the Cheng-Prusoff equation.
Sequence of Mu-type opioid receptor (P33535 whole entry): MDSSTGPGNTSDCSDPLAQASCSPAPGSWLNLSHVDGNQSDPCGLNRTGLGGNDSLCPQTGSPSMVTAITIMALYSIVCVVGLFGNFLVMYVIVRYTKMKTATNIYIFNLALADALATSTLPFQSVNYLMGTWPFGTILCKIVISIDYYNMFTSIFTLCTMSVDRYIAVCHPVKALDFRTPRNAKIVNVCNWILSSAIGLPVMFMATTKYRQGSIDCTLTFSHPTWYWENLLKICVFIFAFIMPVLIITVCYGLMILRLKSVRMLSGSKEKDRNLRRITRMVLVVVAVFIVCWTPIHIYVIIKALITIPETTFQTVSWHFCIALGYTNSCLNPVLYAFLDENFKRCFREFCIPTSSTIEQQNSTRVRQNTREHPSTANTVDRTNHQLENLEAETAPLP

The next assay addresses Nociceptin receptor (Homo sapiens, UniProt P41146). Description: Receptor Binding Assay. To be noted: pH 7.8; 25 °C. The procedure: as §1

Sequence of Nociceptin receptor (P41146 whole entry): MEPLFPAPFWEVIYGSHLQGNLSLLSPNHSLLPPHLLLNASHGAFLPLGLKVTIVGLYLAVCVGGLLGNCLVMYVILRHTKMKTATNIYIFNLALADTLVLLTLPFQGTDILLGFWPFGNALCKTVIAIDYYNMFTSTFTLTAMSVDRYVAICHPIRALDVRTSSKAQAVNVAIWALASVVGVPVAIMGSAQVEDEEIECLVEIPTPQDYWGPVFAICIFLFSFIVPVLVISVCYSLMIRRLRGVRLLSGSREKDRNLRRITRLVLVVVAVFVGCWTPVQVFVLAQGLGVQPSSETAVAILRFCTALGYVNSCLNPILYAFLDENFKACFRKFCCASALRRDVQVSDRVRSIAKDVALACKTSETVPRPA

On to `Cc1ccc2nc(C=Cc3ccc(Cl)cc3)nc(N[C@H]3CC[C@@H](N=C(N)N)CC3)c2c1` [4-({2-[(E)-2-(4-chlorophenyl)ethenyl]-6-methylquinazolin-4-yl}amino)cyclohexane-1-guanidine], for which the Ki on Mu-type opioid receptor was found to be 60 nM; at Nociceptin receptor, 152 nM.
On to `Cc1ccc2nc(C=Cc3ccc(Cl)cc3)nc(N[C@H]3CCCC[C@H]3NC(=N)N)c2c1` (racemic) [(1R,2S)-2-({2-[(E)-2-(4-chlorophenyl)ethenyl]-6-methylquinazolin-4-yl}amino)cyclohexane-1-guanidine], for which the inhibition constant (Ki) on Mu-type opioid receptor turned out to be 220 nM; at Nociceptin receptor it was 43 nM.

The record behind these values is BindingDB's records for doi:10.1016/j.bmc.2008.11.012 (Nippon Shinyaku, 2009).
